This test has as its system P388 leukemia ip, CD2F1 mice, survival T/C. The experiment in a line: NCI In Vivo Anticancer Drug Screen. Data for tumor model P388 Leukemia (intraperitoneal) in CD2F1 (CDF1) mice. The note with it: endpoint: median survival time, higher = longer survival. An outline of the steps:
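Mice carrying the transplanted tumor received test compound or vehicle. Survival was recorded in each group, and the value is the treated-group measurement divided by that of the vehicle-treated control group.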

The mark [1] stands for this setting: dose: 50.0 mg/kg/injection, schedule: Q01DX009 (ip), vehicle: saline with Tween-80.
[2] abbreviates: dose: 100.0 mg/kg/injection, schedule: Q01DX009 (ip), vehicle: saline with Tween-80.
[3] abbreviates: dose: 200.0 mg/kg/injection, schedule: Q01DX009 (ip), vehicle: saline with Tween-80.
Where [4] appears, read: dose: 50.0 mg/kg/injection, schedule: Q01DX005 (ip), vehicle: Klucel (hydroxypropylcellulose) (HPC).
Setting [5] is: dose: 100.0 mg/kg/injection, schedule: Q01DX005 (ip), vehicle: Klucel (hydroxypropylcellulose) (HPC).
[6] abbreviates: dose: 200.0 mg/kg/injection, schedule: Q01DX005 (ip), vehicle: Klucel (hydroxypropylcellulose) (HPC).
Where [7] appears, read: dose: 50.0 mg/kg/injection, schedule: Q01DX005 (ip), vehicle: saline with Tween-80.
[8] abbreviates: dose: 100.0 mg/kg/injection, schedule: Q01DX005 (ip), vehicle: saline with Tween-80.
[9] abbreviates: dose: 200.0 mg/kg/injection, schedule: Q01DX005 (ip), vehicle: saline with Tween-80.
Setting [10] is: dose: 100.0 mg/kg/injection, schedule: Q04DX003 (ip), vehicle: saline.
The mark [11] stands for this setting: dose: 200.0 mg/kg/injection, schedule: Q04DX003 (ip), vehicle: saline.
The mark [12] stands for this setting: dose: 60.0 mg/kg/injection, schedule: Q01DX005 (ip), vehicle: saline with Tween-80.
Where [13] appears, read: dose: 240.0 mg/kg/injection, schedule: Q01DX005 (ip), vehicle: saline with Tween-80.
[14] abbreviates: dose: 120.0 mg/kg/injection, schedule: Q01DX005 (ip), vehicle: saline with Tween-80.
Setting [15] is: dose: 50.0 mg/kg/injection, schedule: Q01DX009 (ip), vehicle: Klucel (hydroxypropylcellulose) (HPC).
[16] abbreviates: dose: 50.0 mg/kg/injection, schedule: Q04DX003 (ip), vehicle: saline with Tween-80.

Several values for one entry are separate records, joined by “and”; a condition that tells them apart may be missing. Identical values can stand only once. Toxic doses and inconclusive results are not listed.

With `CCOCC#CC(OCC)OCC`, the T/C is 101 % of control (dose: 60.0 mg/kg/injection, schedule: Q01DX005 (ip), vehicle: saline); 99 % of control (dose: 120.0 mg/kg/injection, schedule: Q01DX005 (ip), vehicle: saline); 99 % of control (dose: 240.0 mg/kg/injection, schedule: Q01DX005 (ip), vehicle: saline).
With `CC(C)(C)c1cc(C(=S)SCc2ccccc2)cc(C(C)(C)C)c1O`, the T/C runs as follows: under setting [1], 93 % of control; under setting [2], 105 % of control; under setting [3], 105 % of control.
For the compound `[CH3][Sn]([CH3])([O]C(=O)c1ccc2c(c1)OCO2)[O]C(=O)c1ccc2c(c1)OCO2`, the T/C under setting [4] is 112 % of control, the T/C under setting [5] is 112 % of control and the T/C under setting [6] is 109 % of control.
On to `Cc1ccc(C(c2ccccc2)c2ccc(C)cc2O)c(O)c1`, for which the T/C under setting [1] is 118 % of control and the T/C under setting [2] is 105 % of control.
For `O=C(CNC(c1ccccc1)(c1ccccc1)c1ccccc1)OC(c1ccccc1)c1ccccc1`, the T/C is 104 % of control under setting [1], 118 % of control under setting [2] and 90 % of control under setting [3].
For the compound `CCc1nc(-c2ccccc2)nc2c1nc(Cc1ccccc1)n2Nc1ccccc1`, the T/C (dose: 100.0 mg/kg/injection, schedule: Q01DX001 (ip), vehicle: Klucel (hydroxypropylcellulose) (HPC)) was 88 % of control.
Regarding `O=C(Nc1cccc(Cl)c1)OCC(COC(=O)Nc1cccc(Cl)c1)(COC(=O)Nc1cccc(Cl)c1)[N+](=O)[O-]`, the T/C under setting [7] was 95 % of control, the T/C under setting [8] was 98 % of control and the T/C under setting [9] is 100 % of control.
As for `O=C1CN=C(c2ccccc2)c2cc(Cl)ccc2N1CC1CC1`, the T/C under setting [10] was 100 % of control; the T/C under setting [11] is 94 % of control; the T/C (dose: 400.0 mg/kg/injection, schedule: Q04DX003 (ip), vehicle: saline) is 101 % of control.
As for `Cc1cc(C)c2c(n1)sc1c(=O)n(N)c(C)nc12`, the T/C by setting is: under setting [12], 87 % of control; under setting [13], 94 % of control and 95 % of control.
For `[N-]=[N+]=Nc1ccnc2cc(Cl)ccc12`, the T/C by setting is: under setting [12], 108 % of control; under setting [14], 100 % of control; under setting [13], 104 % of control.
Consider `CCOC(=O)C1=NN2C(O)C3(C)CC(C(=O)OCC)=NN3C(O)C2(C)C1` (stereo unspecified), for which the T/C reads like this: (dose: 50.0 mg/kg/injection, schedule: Q01DX009 (ip), vehicle: saline) 105 % of control; (dose: 100.0 mg/kg/injection, schedule: Q01DX009 (ip), vehicle: saline) 107 % of control; (dose: 200.0 mg/kg/injection, schedule: Q01DX009 (ip), vehicle: saline) 99 % of control.
With `Cc1ccc([C@H]2N[C@@H]2c2ccccn2)cc1`, the T/C is 98 % of control under setting [12] and 103 % of control under setting [14].
As for `CSC(=O)/N=C(/NC(=O)c1ccccc1)SC`, the T/C is, setting by setting: under setting [4], 93 % of control; under setting [5], 91 % of control; under setting [6], 92 % of control.
Take `COc1ccc(-c2cc(=O)c3ccc4cc(OC)c(OC)cc4c3o2)cc1`: the T/C (dose: 12.5 mg/kg/injection, schedule: Q01DX009 (ip), vehicle: other) was 91 % of control; the T/C (dose: 100.0 mg/kg/injection, schedule: Q01DX009 (ip), vehicle: other) was 88 % of control; the T/C (dose: 200.0 mg/kg/injection, schedule: Q01DX009 (ip), vehicle: other) is 91 % of control.
Take `COc1ccc(Cc2cc3c(cc2OCCOC(C)=O)OCO3)cc1`: the T/C under setting [7] is 110 % of control, the T/C under setting [8] is 105 % of control and the T/C under setting [9] was 103 % of control.
As to `COC(=O)/C1=C\CC/C(C(=O)OC)=C\C(=O)CCC1`, the T/C was 101 % of control (dose: 25.0 mg/kg/injection, schedule: Q01DX005 (ip), vehicle: Klucel (hydroxypropylcellulose) (HPC)); 101 % of control under setting [4]; 103 % of control under setting [5].
In the case of `CC1CC2OC2/C=C\C=C\C(=O)Cc2c(Cl)c(O)cc(O)c2C(=O)O1` (stereo unspecified), the T/C by setting is: (dose: 6.25 mg/kg/injection, schedule: Q01DX009 (ip), vehicle: Klucel (hydroxypropylcellulose) (HPC)) 107 % of control; (dose: 12.5 mg/kg/injection, schedule: Q01DX009 (ip), vehicle: Klucel (hydroxypropylcellulose) (HPC)) 108 % of control; (dose: 25.0 mg/kg/injection, schedule: Q01DX009 (ip), vehicle: Klucel (hydroxypropylcellulose) (HPC)) 110 % of control; under setting [15], 109 % of control.
As to `CCCCCCC[n+]1cccc(S(=O)(=O)N2CCOCC2)c1`, the T/C was 98 % of control (dose: 12.5 mg/kg/injection, schedule: Q01DX009 (ip), vehicle: saline with Tween-80); 98 % of control (dose: 25.0 mg/kg/injection, schedule: Q01DX009 (ip), vehicle: saline with Tween-80); 98 % of control under setting [1].
On to `CCOC(=O)C(Cc1ccc(N(CCCl)CCCl)cc1)NP1(=O)NCCCO1` (stereo unspecified), for which the T/C is 186 % of control (dose: 14.0 mg/kg/injection, schedule: Q04DX003 (ip), vehicle: saline with Tween-80); 172 % of control (dose: 22.0 mg/kg/injection, schedule: Q04DX003 (ip), vehicle: saline with Tween-80); 218 % of control (dose: 33.0 mg/kg/injection, schedule: Q04DX003 (ip), vehicle: saline with Tween-80); 240 % of control under setting [16].
For `NC(=O)C(Cl)Cn1ccnc1` (stereo unspecified), the T/C is, setting by setting: (dose: 50.0 mg/kg/injection, schedule: Q04DX003 (ip), vehicle: saline) 103 % of control; under setting [10], 100 % of control; under setting [11], 110 % of control.
As to `COC(=O)CCC1=C(C)c2cc3cc(C)c(cc4cc(C)c(cc5nc(cc1n2)C(CCC(=O)OC)=C5C)[nH]4)[nH]3`, the T/C (dose: 0.75 mg/kg/injection, schedule: Q01DX005 (ip), vehicle: saline with Tween-80) was 96 % of control; the T/C (dose: 1.5 mg/kg/injection, schedule: Q01DX005 (ip), vehicle: saline with Tween-80) is 98 % of control; the T/C (dose: 3.0 mg/kg/injection, schedule: Q01DX005 (ip), vehicle: saline with Tween-80) is 91 % of control; the T/C (dose: 3.12 mg/kg/injection, schedule: Q01DX005 (ip), vehicle: saline with Tween-80) is 90 % of control.
Consider `COC(=O)N1CCC(N)(C#N)CC1`, for which the T/C runs as follows: (dose: 12.5 mg/kg/injection, schedule: Q04DX003 (ip), vehicle: Klucel (hydroxypropylcellulose) (HPC)) 100 % of control; (dose: 25.0 mg/kg/injection, schedule: Q04DX003 (ip), vehicle: Klucel (hydroxypropylcellulose) (HPC)) 93 % of control.
With `CCOC(=O)c1c(Br)c2c3ccccc3c3ccccc3n2c1C`, the T/C reads like this: under setting [12], 100 % of control; under setting [14], 111 % of control; under setting [13], 100 % of control.
Regarding `COc1ccc(/C=C/c2cc(OC)cc(=O)o2)cc1`, the T/C (dose: 12.5 mg/kg/injection, schedule: Q04DX003 (ip), vehicle: saline with Tween-80) was 100 % of control; the T/C (dose: 25.0 mg/kg/injection, schedule: Q04DX003 (ip), vehicle: saline with Tween-80) was 99 % of control; the T/C under setting [16] was 100 % of control; the T/C (dose: 100.0 mg/kg/injection, schedule: Q04DX003 (ip), vehicle: saline with Tween-80) is 100 % of control.
For the compound `CC(=O)NCc1cc(C)c(CC#N)cc1CC#N`, the T/C is 100 % of control (dose: 6.25 mg/kg/injection, schedule: Q01DX009 (ip), vehicle: distilled water + Tween-80); 89 % of control and 91 % of control (dose: 12.5 mg/kg/injection, schedule: Q01DX009 (ip), vehicle: distilled water + Tween-80); 103 % of control (dose: 25.0 mg/kg/injection, schedule: Q01DX009 (ip), vehicle: distilled water + Tween-80); 94 % of control (dose: 50.0 mg/kg/injection, schedule: Q01DX009 (ip), vehicle: distilled water + Tween-80); 94 % of control (dose: 100.0 mg/kg/injection, schedule: Q01DX009 (ip), vehicle: distilled water + Tween-80).
Turning to `N#C/C(=C/N)C(N)=O`, the T/C is, setting by setting: under setting [1], 104 % of control; under setting [2], 103 % of control; under setting [3], 103 % of control.
Consider `CCOC(=O)CN1C(=S)CSC1=S`, for which the T/C is, setting by setting: under setting [15], 106 % of control; (dose: 100.0 mg/kg/injection, schedule: Q01DX009 (ip), vehicle: Klucel (hydroxypropylcellulose) (HPC)) 98 % of control; (dose: 200.0 mg/kg/injection, schedule: Q01DX009 (ip), vehicle: Klucel (hydroxypropylcellulose) (HPC)) 107 % of control and 109 % of control.

Source of the values: PubChem BioAssay AID330 (DTP/NCI, 2004).
